From ChEMBL document CHEMBL4411260, “Dual Inhibition of TYK2 and JAK1 for the Treatment of Autoimmune Diseases: Discovery of (( S)-2,2-Difluorocyclopropyl)((1 R,5 S)-3-(2-((1-methyl-1 H-pyrazol-4-yl)amino)pyrimidin-4-yl)-3,8-diazabicyclo[3.2.1]octan-8-yl)methanone (PF-06700841)” (J Med Chem, 2018)
pIC50: −log10 of the molar value. In brackets after ≈: the same amount, converted by molar mass.

Key:
[1] = Passive apparent permeability from apical to basolateral side in RRCK cells; format: ADME, cell-based, Canis lupus familiaris, MDCKII-LE; conditions: dog, MDCK
[2] = Thermodynamic equilibrium solubility of the compound at pH 7.64 phosphate buffer saline by UPLC analysis; format: physicochemical; conditions: read-out: Therm_solubility
[3] = Solubility of compound in fasted state simulated intestinal fluid; format: physicochemical
[4] = Solubility of compound in fed state simulated intestinal fluid; format: physicochemical
[5] = Unbound intrinsic clearance in human liver microsomes assessed as per mg protein; format: ADME, Microsome
[6] = Unbound intrinsic clearance in human hepatocytes assessed as per million cells; format: ADME, cell-based, Hepatocyte
[7] = Fraction unbound in rat plasma; format: ADME, cell-free
[8] = Fraction unbound in human plasma; format: ADME, cell-free
[9] = biological target: T1, Vascular endothelial growth factor receptor 2 (Homo sapiens, UniProt P35968); test: Inhibition of recombinant human VEGFR2 using Ulight-CAGAGAIETDKEYYTVKD as substrate after 60 mins
[10] = biological target: T1, Vascular endothelial growth factor receptor 2; test: Inhibition of VEGFR2 (unknown origin) by cell based assay
[11] = Drug metabolism in human liver microsomes assessed as oxidative metabolite formation; format: ADME, Microsome
[12] = Drug metabolism in rat liver microsomes assessed as oxidative metabolite formation; format: ADME, Microsome
[13] = Drug metabolism in monkey liver microsomes assessed as oxidative metabolite formation; format: ADME, Macaca mulatta, Microsome; conditions: rhesus monkey
[14] = Drug metabolism in human liver microsomes assessed as oxidation of N-methy pyrazole; format: ADME, Microsome
[15] = Drug metabolism in human liver microsomes assessed as N-demethylation; format: ADME, Microsome
[16] = Drug metabolism in human liver microsomes assessed as N-dealkylation; format: ADME, Microsome
[17] = Drug metabolism in rat liver microsomes assessed as oxidation of N-methy pyrazole; format: ADME, Microsome
[18] = Drug metabolism in rat liver microsomes assessed as N-demethylation; format: ADME, Microsome
[19] = Drug metabolism in rat liver microsomes assessed as N-dealkylation; format: ADME, Microsome
[20] = Drug metabolism in monkey liver microsomes assessed as oxidation of N-methy pyrazole; format: ADME, Macaca mulatta, Microsome; conditions: rhesus monkey
[21] = Drug metabolism in monkey liver microsomes assessed as N-demethylation; format: ADME, Macaca mulatta, Microsome; conditions: rhesus monkey
[22] = Drug metabolism in monkey liver microsomes assessed as N-dealkylation; format: ADME, Macaca mulatta, Microsome; conditions: rhesus monkey
[23] = Drug metabolism in monkey liver microsomes assessed as CYP3A4-mediated metabolism; format: ADME, Macaca mulatta; conditions: rhesus monkey
[24] = Drug metabolism in rat liver microsomes assessed as CYP3A4-mediated metabolism; format: ADME
[25] = biological target: Cytochrome P450 3A4 (Homo sapiens, UniProt P08684); test: Drug metabolism in human liver microsomes assessed as CYP3A4-mediated metabolism; format: ADME
[26] = physchem; conditions: octanol/water phosphate buffer, pH 7.4
[27] = biological target: T2, Non-receptor tyrosine-protein kinase TYK2 (Homo sapiens, UniProt P29597); test: Inhibition of N-terminal GST tagged human TYK2 (871 to 1187 end residues) catalytic domain expressed in baculovirus expression system at 1 uM in presence of ATP at its Km level relative to control
[28] = biological target: T3, Tyrosine-protein kinase JAK1 (Homo sapiens, UniProt P23458); test: Inhibition of N-terminal GST tagged human JAK1 (850 to 1154 end residues) catalytic domain expressed in baculovirus expression system at 1 uM in presence of ATP at its Km level relative to control
[29] = biological target: T4, Tyrosine-protein kinase JAK2 (Homo sapiens, UniProt O60674); test: Inhibition of N-terminal His tagged human JAK2 (826 to 1132 end residues) catalytic domain expressed in baculovirus expression system at 1 uM in presence of ATP at its Km level relative to control
[30] = biological target: Non-receptor tyrosine-protein kinase TNK1 (Homo sapiens) (UniProt Q13470); test: Inhibition of N-terminal GST tagged human TNK1 (106 to 390 residues) catalytic domain expressed in baculovirus expression system at 1 uM in presence of ATP at its Km level relative to control
[31] = biological target: Tyrosine-protein kinase JAK3 (Homo sapiens) (UniProt P52333); test: Inhibition of N-terminal His tagged human JAK3 (795 to 1124 end residues) catalytic domain expressed in baculovirus expression system at 1 uM in presence of ATP at its Km level relative to control
[32] = biological target: Serine/threonine-protein kinase SIK2 (Homo sapiens) (UniProt Q9H0K1); test: Inhibition of N-terminal GST tagged full length human QIK (1 to 926 end residues) expressed in baculovirus expression system at 1 uM in presence of ATP at its Km level relative to control
[33] = biological target: Activated CDC42 kinase 1 (Homo sapiens) (UniProt Q07912); test: Inhibition of N-terminal GST tagged human ACK (110 to 476 residues) catalytic domain expressed in baculovirus expression system at 1 uM in presence of ATP at its Km level relative to control
[34] = test system: Platelet-derived growth factor receptor alpha (Homo sapiens), P16234 [T674I]; test: Inhibition of N-terminal GST tagged human PDGFRalpha (550 to 1089 end residues) catalytic domain T674I mutant expressed in baculovirus expression system at 1 uM in presence of ATP at its Km level relative to control
[35] = biological target: Serine/threonine-protein kinase SIK1 (Homo sapiens) (UniProt P57059); test: Inhibition of N-terminal GST tagged full length human SIK (1 to 783 end residues) expressed in baculovirus expression system at 1 uM in presence of ATP at its Km level relative to control
[36] = biological target: Platelet-derived growth factor receptor alpha (Homo sapiens) (UniProt P16234); test: Inhibition of N-terminal GST tagged human PDGFRalpha (550 to 1089 end residues) cytoplasmic domain expressed in baculovirus expression system at 1 uM in presence of ATP at its Km level relative to control
[37] = biological target: Dual specificity mitogen-activated protein kinase kinase 5 (Homo sapiens) (UniProt Q13163); test: Inhibition of N-terminal GST tagged full length human MAP2K5 (1 to 448 end residues) co-expressing His tagged MAP3K3/ CDC37/HSP90 expressed in baculovirus expression system at 1 uM in presence of ATP at its Km level relative to control
[38] = biological target: MAP kinase-interacting serine/threonine-protein kinase 2 (Homo sapiens) (UniProt Q9HBH9); test: Inhibition of N-terminal GST tagged full length human MNK2 (1 to 465 end residues) expressed in baculovirus expression system at 1 uM in presence of ATP at its Km level relative to control
[39] = biological target: Platelet-derived growth factor receptor beta (Homo sapiens) (UniProt P09619); test: Inhibition of N-terminal GST tagged human PDGFRbeta (557 to 1106 end residues) cytoplasmic domain expressed in baculovirus expression system at 1 uM in presence of ATP at its Km level relative to control
[40] = biological target: Mitogen-activated protein kinase 7 (Homo sapiens) (UniProt Q13164); test: Inhibition of N-terminal GST tagged human ERK5 (1 to 398 residues) cytoplasmic domain expressed in Escherichia coli at 1 uM in presence of ATP at its Km level relative to control
[41] = biological target: Aurora kinase A (Homo sapiens) (UniProt O14965); test: Inhibition of N-terminal GST tagged full length human AurA (1 to 403 end residues) expressed in baculovirus expression system at 1 uM in presence of ATP at its Km level relative to control
[42] = test system: Platelet-derived growth factor receptor alpha (Homo sapiens), P16234 [V561D]; test: Inhibition of N-terminal GST tagged human PDGFRalpha (550 to 1089 end residues) catalytic domain V561D mutant expressed in baculovirus expression system at 1 uM in presence of ATP at its Km level relative to control
[43] = biological target: NUAK family SNF1-like kinase 1 (Homo sapiens) (UniProt O60285); test: Inhibition of N-terminal GST tagged full length human Nuak1 (1 to 661 end residues) expressed in baculovirus expression system at 1 uM in presence of ATP at its Km level relative to control
[44] = biological target: Macrophage colony-stimulating factor 1 receptor (Homo sapiens) (UniProt P07333); test: Inhibition of N-terminal GST tagged human FMS (538 to 972 end residues) cytoplasmic domain expressed in baculovirus expression system at 1 uM in presence of ATP at its Km level relative to control
[45] = biological target: MAP/microtubule affinity-regulating kinase 4 (Homo sapiens) (UniProt Q96L34); test: Inhibition of N-terminal GST tagged full length human MARK4 (1 to 688 end residues) expressed in baculovirus expression system at 1 uM in presence of ATP at its Km level relative to control
[46] = biological target: MAP/microtubule affinity-regulating kinase 3 (Homo sapiens) (UniProt P27448); test: Inhibition of N-terminal GST tagged full length human MARK3 (1 to 729 end residues) expressed in baculovirus expression system at 1 uM in presence of ATP at its Km level relative to control
[47] = biological target: T2, Non-receptor tyrosine-protein kinase TYK2; test: Inhibition of N-terminal GST tagged human TYK2 (871 to 1187 end residues) catalytic domain expressed in baculovirus expression system at 1 uM in presence of 1 mM ATP relative to control
[48] = biological target: T3, Tyrosine-protein kinase JAK1; test: Inhibition of N-terminal GST tagged human JAK1 (850 to 1154 end residues) catalytic domain expressed in baculovirus expression system at 1 uM in presence of 1 mM ATP relative to control
[49] = biological target: T4, Tyrosine-protein kinase JAK2; test: Inhibition of N-terminal His tagged human JAK2 (826 to 1132 end residues) catalytic domain expressed in baculovirus expression system at 1 uM in presence of 1 mM ATP relative to control
[50] = biological target: Non-receptor tyrosine-protein kinase TNK1 (Homo sapiens) (UniProt Q13470); test: Inhibition of N-terminal GST tagged human TNK1 (106 to 390 residues) catalytic domain expressed in baculovirus expression system at 1 uM in presence of 1 mM ATP relative to control
[51] = test system: Rattus norvegicus; test: Antiarthritic activity in complete freund's adjuvant-induced Lewis rat arthritis model assessed as reduction in paw volume administered orally as once daily dose via gavage treated for 7 consecutive days by plethysmography; format: functional, organism-based

T1 sequence (P35968 whole entry): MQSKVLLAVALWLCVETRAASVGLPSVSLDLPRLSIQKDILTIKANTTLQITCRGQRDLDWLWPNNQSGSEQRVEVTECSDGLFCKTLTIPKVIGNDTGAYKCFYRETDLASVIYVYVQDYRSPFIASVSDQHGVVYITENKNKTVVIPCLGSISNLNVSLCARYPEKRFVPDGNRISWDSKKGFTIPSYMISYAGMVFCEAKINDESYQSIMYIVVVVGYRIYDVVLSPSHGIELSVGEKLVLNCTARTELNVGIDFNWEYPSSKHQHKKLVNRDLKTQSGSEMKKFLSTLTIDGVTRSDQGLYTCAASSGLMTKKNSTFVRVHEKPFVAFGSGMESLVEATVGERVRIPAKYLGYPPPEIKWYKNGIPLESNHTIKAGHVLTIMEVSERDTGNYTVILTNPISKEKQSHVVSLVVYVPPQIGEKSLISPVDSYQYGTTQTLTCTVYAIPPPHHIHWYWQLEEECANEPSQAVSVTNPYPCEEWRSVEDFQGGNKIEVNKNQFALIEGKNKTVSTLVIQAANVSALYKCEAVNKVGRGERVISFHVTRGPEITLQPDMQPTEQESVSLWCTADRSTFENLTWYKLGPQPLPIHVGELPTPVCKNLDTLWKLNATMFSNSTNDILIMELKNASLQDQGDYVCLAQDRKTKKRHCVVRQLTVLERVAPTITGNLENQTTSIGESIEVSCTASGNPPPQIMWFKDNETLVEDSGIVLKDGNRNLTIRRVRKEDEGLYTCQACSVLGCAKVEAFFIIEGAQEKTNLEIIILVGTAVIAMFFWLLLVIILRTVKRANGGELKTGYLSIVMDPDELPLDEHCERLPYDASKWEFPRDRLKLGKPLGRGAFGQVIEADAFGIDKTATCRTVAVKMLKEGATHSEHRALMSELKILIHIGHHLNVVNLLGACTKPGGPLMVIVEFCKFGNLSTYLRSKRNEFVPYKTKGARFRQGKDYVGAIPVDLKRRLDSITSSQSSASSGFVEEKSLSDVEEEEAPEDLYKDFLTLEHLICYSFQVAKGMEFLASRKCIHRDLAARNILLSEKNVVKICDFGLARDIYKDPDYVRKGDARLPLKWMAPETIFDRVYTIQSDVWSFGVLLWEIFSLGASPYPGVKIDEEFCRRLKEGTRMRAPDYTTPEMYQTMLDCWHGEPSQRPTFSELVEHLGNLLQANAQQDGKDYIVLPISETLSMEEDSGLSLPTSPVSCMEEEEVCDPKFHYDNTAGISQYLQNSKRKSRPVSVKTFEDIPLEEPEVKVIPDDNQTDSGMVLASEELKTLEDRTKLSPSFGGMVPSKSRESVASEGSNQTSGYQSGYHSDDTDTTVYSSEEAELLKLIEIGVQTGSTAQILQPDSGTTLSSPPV
T4 sequence (O60674 whole entry, the tested form may be a part): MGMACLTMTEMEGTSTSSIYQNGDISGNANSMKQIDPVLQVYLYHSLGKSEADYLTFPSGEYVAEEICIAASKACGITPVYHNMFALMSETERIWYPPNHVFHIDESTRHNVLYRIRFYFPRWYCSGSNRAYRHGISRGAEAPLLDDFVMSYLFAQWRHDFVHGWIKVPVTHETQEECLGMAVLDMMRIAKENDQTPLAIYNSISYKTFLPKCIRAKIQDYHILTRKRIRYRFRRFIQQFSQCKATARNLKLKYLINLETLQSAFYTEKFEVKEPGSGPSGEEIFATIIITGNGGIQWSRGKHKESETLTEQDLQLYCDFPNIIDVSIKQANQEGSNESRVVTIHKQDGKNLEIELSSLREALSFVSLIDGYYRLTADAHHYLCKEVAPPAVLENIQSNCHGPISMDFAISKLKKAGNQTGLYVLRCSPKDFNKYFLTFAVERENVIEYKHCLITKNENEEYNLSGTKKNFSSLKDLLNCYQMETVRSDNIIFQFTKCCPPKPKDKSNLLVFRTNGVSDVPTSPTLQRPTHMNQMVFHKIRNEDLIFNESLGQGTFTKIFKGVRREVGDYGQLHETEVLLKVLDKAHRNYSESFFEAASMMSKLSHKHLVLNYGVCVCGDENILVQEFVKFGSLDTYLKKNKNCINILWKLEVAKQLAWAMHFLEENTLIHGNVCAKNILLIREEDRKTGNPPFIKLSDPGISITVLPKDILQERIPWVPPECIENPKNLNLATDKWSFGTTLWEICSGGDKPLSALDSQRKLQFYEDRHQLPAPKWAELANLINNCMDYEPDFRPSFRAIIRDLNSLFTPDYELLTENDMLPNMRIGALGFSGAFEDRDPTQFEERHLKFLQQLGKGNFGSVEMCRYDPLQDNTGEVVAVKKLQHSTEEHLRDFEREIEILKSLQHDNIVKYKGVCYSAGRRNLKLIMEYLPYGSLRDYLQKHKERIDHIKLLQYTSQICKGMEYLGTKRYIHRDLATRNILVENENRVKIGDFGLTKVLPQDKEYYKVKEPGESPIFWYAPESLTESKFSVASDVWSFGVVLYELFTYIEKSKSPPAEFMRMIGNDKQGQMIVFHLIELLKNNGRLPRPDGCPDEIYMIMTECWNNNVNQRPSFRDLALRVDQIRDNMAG
T3 sequence (P23458 whole entry, the tested form may be a part): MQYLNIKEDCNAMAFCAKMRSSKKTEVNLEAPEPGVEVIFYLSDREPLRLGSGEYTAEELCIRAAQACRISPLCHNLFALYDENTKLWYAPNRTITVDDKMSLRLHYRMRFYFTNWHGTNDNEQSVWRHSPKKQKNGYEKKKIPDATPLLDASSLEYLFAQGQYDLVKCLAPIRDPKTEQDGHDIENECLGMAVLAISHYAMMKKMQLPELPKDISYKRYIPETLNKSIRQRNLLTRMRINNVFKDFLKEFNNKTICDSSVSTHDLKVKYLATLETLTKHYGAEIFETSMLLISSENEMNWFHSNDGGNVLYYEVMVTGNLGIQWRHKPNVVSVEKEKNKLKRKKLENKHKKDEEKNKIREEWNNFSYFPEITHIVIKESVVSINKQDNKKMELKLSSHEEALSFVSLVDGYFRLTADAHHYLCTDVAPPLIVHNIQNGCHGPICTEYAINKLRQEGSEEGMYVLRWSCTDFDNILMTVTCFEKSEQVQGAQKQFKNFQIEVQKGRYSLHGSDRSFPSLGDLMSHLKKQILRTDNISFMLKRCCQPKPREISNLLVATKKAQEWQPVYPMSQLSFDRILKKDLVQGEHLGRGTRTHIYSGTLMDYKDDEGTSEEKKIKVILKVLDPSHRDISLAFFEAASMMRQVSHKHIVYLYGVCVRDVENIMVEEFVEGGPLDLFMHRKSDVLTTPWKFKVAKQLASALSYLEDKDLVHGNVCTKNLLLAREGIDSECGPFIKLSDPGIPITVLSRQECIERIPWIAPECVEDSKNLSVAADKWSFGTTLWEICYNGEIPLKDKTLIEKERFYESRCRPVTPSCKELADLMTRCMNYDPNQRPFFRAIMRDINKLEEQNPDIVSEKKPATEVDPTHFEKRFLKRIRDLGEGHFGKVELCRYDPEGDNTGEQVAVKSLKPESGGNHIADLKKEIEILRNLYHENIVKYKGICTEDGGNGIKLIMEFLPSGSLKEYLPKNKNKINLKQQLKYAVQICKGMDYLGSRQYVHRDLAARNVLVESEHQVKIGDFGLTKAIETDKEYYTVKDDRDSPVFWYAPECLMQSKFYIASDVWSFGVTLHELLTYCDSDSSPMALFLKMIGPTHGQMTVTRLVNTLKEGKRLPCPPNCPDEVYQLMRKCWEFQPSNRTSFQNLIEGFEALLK
Sequence of Non-receptor tyrosine-protein kinase TNK1 (Homo sapiens) (Q13470 whole entry, the tested form may be a part): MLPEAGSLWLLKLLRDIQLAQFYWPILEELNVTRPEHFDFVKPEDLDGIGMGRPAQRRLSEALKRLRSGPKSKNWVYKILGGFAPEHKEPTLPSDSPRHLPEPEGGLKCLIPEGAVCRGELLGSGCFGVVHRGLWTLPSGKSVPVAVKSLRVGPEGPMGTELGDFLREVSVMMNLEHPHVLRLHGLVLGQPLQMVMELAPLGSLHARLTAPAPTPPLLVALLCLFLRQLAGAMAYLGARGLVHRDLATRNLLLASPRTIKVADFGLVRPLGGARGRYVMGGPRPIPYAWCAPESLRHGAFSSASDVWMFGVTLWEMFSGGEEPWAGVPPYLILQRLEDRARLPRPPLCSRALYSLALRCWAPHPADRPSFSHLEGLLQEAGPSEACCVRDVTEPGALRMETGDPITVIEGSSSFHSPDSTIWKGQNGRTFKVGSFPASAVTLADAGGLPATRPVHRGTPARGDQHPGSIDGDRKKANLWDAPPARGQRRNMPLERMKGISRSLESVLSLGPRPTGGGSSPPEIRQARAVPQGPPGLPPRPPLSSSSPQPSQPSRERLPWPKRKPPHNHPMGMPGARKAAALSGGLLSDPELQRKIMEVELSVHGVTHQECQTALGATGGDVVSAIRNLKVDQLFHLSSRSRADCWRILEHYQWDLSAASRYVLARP
Sequence of Aurora kinase A (Homo sapiens) (O14965 whole entry, the tested form may be a part): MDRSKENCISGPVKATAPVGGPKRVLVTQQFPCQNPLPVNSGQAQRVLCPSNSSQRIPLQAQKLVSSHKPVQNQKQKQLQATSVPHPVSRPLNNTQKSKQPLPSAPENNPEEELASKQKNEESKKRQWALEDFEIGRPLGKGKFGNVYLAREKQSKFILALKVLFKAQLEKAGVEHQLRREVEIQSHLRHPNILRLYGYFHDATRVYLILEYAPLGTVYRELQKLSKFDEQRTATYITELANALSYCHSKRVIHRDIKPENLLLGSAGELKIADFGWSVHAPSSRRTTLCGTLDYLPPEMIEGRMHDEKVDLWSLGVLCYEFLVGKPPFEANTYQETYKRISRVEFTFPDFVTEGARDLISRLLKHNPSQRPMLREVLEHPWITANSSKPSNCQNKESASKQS

SMILES: Cn1cc(Nc2nccc(N3CC4CC[C@H](C3)N4C(=O)[C@@H]3CC3(F)F)n2)cn1 (single isomer, unassigned) [listing 1 of 2 here]
- Papp A→B [1]: 18.8 ×10⁻⁶ cm/s
- solubility thermodynamic [2]: 4840 µg/mL (≈ 12.4 mM)
- solubility [3]: > 7000 µg/mL
- solubility [4]: > 7000 µg/mL
- CL free [5]: < 10 µL/min
- CL free [6]: < 0.6 µL/min
- fraction unbound [7]: 0.69
- fraction unbound [8]: 0.61
- pIC50 [9]: 5.80
- pIC50 [10]: < 4.52
- Drug metabolism [11]: Metabolite_Detected
- Drug metabolism [12]: Metabolite_Detected
- Drug metabolism [13]: Metabolite_Detected
- Drug metabolism [14]: Metabolite_Detected
- Drug metabolism [15]: Metabolite_Detected
- Drug metabolism [16]: Metabolite_Detected
- Drug metabolism [17]: Metabolite_Detected
- Drug metabolism [18]: Metabolite_Detected
- Drug metabolism [19]: Metabolite_Detected
- Drug metabolism [20]: Metabolite_Detected
- Drug metabolism [21]: Metabolite_Detected
- Drug metabolism [22]: Metabolite_Detected
- Drug metabolism [23]: Metabolite_Detected
- Drug metabolism [24]: Metabolite_Detected
- Drug metabolism [25]: Metabolite_Detected
- logD [26]: 1.61

SMILES: Cn1cc(Nc2nccc(N3CC4CC[C@H](C3)N4C(=O)[C@@H]3CC3(F)F)n2)cn1 (single isomer, unassigned) [listing 2 of 2 here]
- inhibition [27]: 101%
- inhibition [28]: 101%
- inhibition [29]: 101%
- inhibition [30]: 94%
- inhibition [31]: 92%
- inhibition [32]: 91%
- inhibition [33]: 82%
- inhibition [34]: 78%
- inhibition [35]: 77%
- inhibition [36]: 70%
- inhibition [37]: 70%
- inhibition [38]: 68%
- inhibition [39]: 66%
- inhibition [40]: 63%
- inhibition [41]: 62%
- inhibition [42]: 60%
- inhibition [43]: 60%
- inhibition [44]: 59%
- inhibition [45]: 59%
- inhibition [46]: 50%
- inhibition [47]: 98%
- inhibition [48]: 96%
- inhibition [49]: 94%
- inhibition [50]: 64%
- Activity [51]: Dose-dependent effect
